Assay results reported in US20170275249A1, “SMALL LIPOPEPTIDOMIMETIC INHIBITORS OF GHRELIN O-ACYL TRANSFERASE” (THE REGENTS OF THE UNIVERSITY OF CALIFORNIA, priority 2014, published 2017).
Where two headings read alike, the source gives them in different places.

What was measured:
mouse GOAT = biological target: T1, mouse GOAT (Mus musculus, UniProt P0C7A3); assay: ghrelin radio-octanoylation assay (Yang et al.), Sf9 membrane fractions; assay type: biochemical; conditions: for GOAT-inhibiting activity in vitro: relative to Compound 1
T1 construct: made in house; host or cells: Sf9 insect cells (baculovirus), membrane fractions
T1 sequence (P0C7A3 1-435): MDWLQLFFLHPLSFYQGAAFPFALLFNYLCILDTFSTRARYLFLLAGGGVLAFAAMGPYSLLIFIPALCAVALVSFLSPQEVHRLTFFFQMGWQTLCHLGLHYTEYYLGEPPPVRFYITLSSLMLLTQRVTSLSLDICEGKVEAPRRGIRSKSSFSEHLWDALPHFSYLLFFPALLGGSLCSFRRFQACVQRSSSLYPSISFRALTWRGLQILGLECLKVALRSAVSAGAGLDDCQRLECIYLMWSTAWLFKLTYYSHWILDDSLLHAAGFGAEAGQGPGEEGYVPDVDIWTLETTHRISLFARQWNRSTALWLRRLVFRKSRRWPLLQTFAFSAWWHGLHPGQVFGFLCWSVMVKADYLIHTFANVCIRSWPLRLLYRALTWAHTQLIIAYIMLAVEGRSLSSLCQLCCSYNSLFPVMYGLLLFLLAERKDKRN
Procedure: In vitro activity was quantified using the octanoylation assay developed by Yang et al. (2008, Proc. Natl. Acad. Sci. USA 105:10750-10755). No pure or soluble form of GOAT that retains enzymatic activity is thus far available. Recombinant poly-His-tagged ghrelin was incubated with radiolabeled octanoyl CoA and membrane fractions isolated from Sf9 cells infected with a GOAT-encoding baculovirus. Recovery of acyl- and des-acyl ghrelin using a Ni^2+ affinity column was followed by scintillation counting to determine the extent of acyltransferase activity, which was reported as a percentage of control.
Thiosarcosine derived peptidomimetic Compound 1 (of Example 1.1) and truncated analog Compound 2 (of Example 1.2), which served as a negative control, were screened for GOAT-inhibiting activity using membrane fractions prepared from Sf9 cells infected with baculovirus encoding mouse GOAT as a source of the acyltransferase. The assay detected specific acyl transfer from tritiated octanoyl-CoA to recombinant His-tagged proghrelin.

[1] = test system: GOAT/preproghrelin-expressing INS-1 cells; assay: acyl ghrelin production in intact cells, Western immunoblot; assay type: cell-based; conditions: 18 hours incubation
Procedure: Molecular parameters for Compound 1 were well within those characteristics of orally bioavailable drugs. In INS-1 cell culture, compounds were administered to cultured INS-1 cells that had been engineered to express GOAT and preproghrelin. After incubating the cells in the presence of the compounds for 18 hours, the cells were lysed and ghrelin species (acyl ghrelin vs. total ghrelin) present in the lysates were quantified by Western immunoblot. […] Total ghrelin levels were unchanged irrespective of the inhibitor concentration that was present.

[2] = mouse plasma
Procedure: (§1) (Taylor, M. S. et al., 2012, Methods in Enzymology 514:205-228.) For in vitro as well as in vivo pharmacokinetic analyses, inhibitor concentration was determined using LC/MS/MS.
(§2) GOAT inhibitor (Compound 1) and control (Compound 2) were added to liver S9 fractions or mouse plasma and the concentrations of each compound over time were quantified using LC/MS/MS.

[3] = human
Procedure: as §1, §2

[4] = test system: acyl ghrelin : total ghrelin ratio in serum; assay: time course of serum acyl ghrelin after IP administration; assay type: in vivo; conditions: mice, 80 mg/kg IP, FIG. 3
Procedure: Compound 1 was administered intraperitoneally (IP) to mice (dosed at 80 mg/kg) at time zero and blood samples were collected at indicated timepoints (see FIG. 3). Serum acyl ghrelin: total ghrelin ratios were determined using ELISA with antibodies specific for acyl or des-acyl ghrelin. Inhibitor concentrations were determined using LC/MS/MS detection. […] Reappearance of acyl-ghrelin tracked with the time-dependent change in inhibitor concentration in plasma.

measured LogD = assay type: physicochemical
oral bioavailability = assay type: in vivo
[5] = stability in mouse plasma (LC/MS/MS)
Procedure: as §1, §2

[6] = stability in liver S9 fractions (LC/MS/MS); conditions: human liver S9 fractions
Procedure: as §1, §2

[7] = Table 1, inhibitory activity against GOAT, cells printed in nM

Compound: CCCCC1CC(C(=O)NC[C@H]2CCCN2C(=O)[C@@H](N)C(C)(C)C)C1.CCCCC1CC(C(=O)NC[C@H]2CCCN2C(=O)[C@@H](N)C(C)(C)C)C1.O=C(O)C(O)C(O)C(=O)O (stereo partly drawn) [Compound 2, (1s,3R)—N—(((R)-1-((S)-2-AMINO-3,3-DIMETHYLBUTANOYL)PYRROLIDIN-2-YL)METHYL)-3-BUTYLCYCLOBUTANECARBOXAMIDE HEMITARTRATE]
- GOAT-inhibiting activity in vitro (mouse GOAT): inactive
- inhibition of acyl ghrelin biosynthesis ([1]; FIG. 4): inactive
- Plasma t1/2 [2]: 1.52 h
- Liver S9 t1/2 [3]: 2.08 h

Compound: CCCC[C@H]1C[C@@H](C(=O)NCCN(C)C(=O)[C@@H](NC(=O)CN)C2CCCCC2)C1 [Entry 1]
- IC50 (mouse GOAT; [7]): 2000 nM

Compound: CCCCC1CC(C(=O)NC[C@H]2CCCN2C(=O)[C@@H](N)C(C)(C)C)C1 (some centres unmarked) [Entry 2]
- IC50 (mouse GOAT; [7]): > 3000 nM

Compound: CCCC[C@H]1C[C@@H](C(=O)NC[C@H]2CCCN2C(=O)[C@@H](NC(=N)CN)C2CCCCC2)C1 [Entry 7]
- IC50 (mouse GOAT; [7]): > 3000 nM

Compound: CCCC[C@H]1C[C@@H](C(=O)NC[C@H]2CCCN2C(=O)[C@@H](N)C2CCCCC2)C1 [Entry 9]
- IC50 (mouse GOAT; [7]): > 3000 nM

Compound: C=CCOC(=O)NCC(=S)N[C@H](C(=O)N1CCC[C@@H]1CNC(=S)C1CC(CCCC)C1)C(C)(C)C (some centres unmarked) [Entry 15]
- IC50 (mouse GOAT; [7]): > 3000 nM

Compound: CCCC[C@H]1C[C@H](C(=S)NC[C@H]2CCCN2C(=O)[C@@H](NC(=S)CN)C(C)(C)C)C1 [Entry 16, (1s,3R)—N—(((R)-1-((S)-2-(2-AMINOETHANETHIOAMIDO)-3,3-DIMETHYLBUTANOYL)PYRROLIDIN-2-YL)METHYL)-3-BUTYLCYCLOBUTANECARBOTHIOAMIDE]
- IC50 (mouse GOAT; [7]): 200 nM

Compound: CCCC[C@H]1C[C@@H](C(=S)NC[C@H]2CCCN2C(=O)[C@@H](NC(=O)CN)C2CCCCC2)C1 [Entry 20]
- IC50 (mouse GOAT; [7]): 650 nM

Compound: CCCC[C@H]1C[C@H](C(=O)NC[C@H]2CCCN2C(=O)[C@@H](NC(=S)CN)C(C)(C)C)C1 [Entry 26]
- IC50 (mouse GOAT; [7]): 25 nM

Compound: CCCCC1CC(C(=S)NC[C@H]2CCCN2C(=O)[C@@H](NC(=S)CN)C(C)(C)C)C1 (stereo partly drawn) [inhibitor 10, (1s,3R)—N—(((R)-1-((S)-2-(2-AMINOETHANETHIOAMIDO)-3,3-DIMETHYLBUTANOYL)PYRROLIDIN-2-YL)METHYL)-3-BUTYLCYCLOBUTANECARBO-THIOAMIDE HEMITARTRATE]
- GOAT-inhibiting activity in vitro (mouse GOAT): equally potent

Compound: (1s,3R)-3-BUTYL-N—(((R)-1-((S)-3,3-DIMETHYL-2-(2-(METHYLAMINO)ETHANETHIOAMIDO)BUTANOYL)PYRROLIDIN-2-YL)METHYL)CYCLOBUTANE CARBOXAMIDE HEMITARTRATE [Compound 1]
- IC50 (mouse GOAT; FIG. 2, tritiated octanoyl-CoA, His-tagged proghrelin): ~30 nM
- potency compared side-by-side with prior art GOAT inhibitors (mouse GOAT; FIG. 6, versus compounds 3, 4, 5 and 6): by far the most potent inhibitor of GOAT
- time at which acyl-ghrelin recovered [4]: 3 h
- acyl-ghrelin in circulation ([4]; within minutes): near undetectable levels
- Measured LogD (measured LogD): 1.71
- concentration at which production of acyl ghrelin was inhibited ([1]; FIG. 4): greater than 1 μM
- concentration at which production of acyl ghrelin was substantially completely blocked ([1]; FIG. 4): above 5 μM
- total ghrelin levels ([1]; irrespective of inhibitor concentration): unchanged
- oral bioavailability % F (oral bioavailability): 10-15%
- Plasma t1/2 [5]: >10.5 h
- stability in mouse plasma [5]: stable
- Liver S9 t1/2 [6]: 2.03 h
- metabolism by liver S9 fractions [6]: slowly metabolized
